Experiments:
80S complex formation = test: Ribosome binding (80S complex formation) of 32P-labeled CAT mRNA in rabbit reticulocyte lysate; format: biochemical; conditions: CAT mRNA/CHX + 50 μM hippuristanol; CHX alone 22% binding
Method: FIG. 6. Hippuristanol inhibits translation initiation. A. Hippuristanol inhibits 80S complex formation. ^32P-labeled CAT mRNA was incubated in rabbit reticulocyte lysate with cycloheximide (CHX) in the presence or absence of 50 μM hippuristanol. Complexes were resolved on glycerol gradients. Total counts recovered from each gradient and the percent mRNA bound in 80S complexes were: CAT mRNA/CHX [43,498 cpm, 22% binding] and CAT mRNA/CHX+Hipp. [45,279 cpm, 5.7% binding]. B. Hippuristanol inhibits crosslinking of eIF4Ac and eIF4B to capped mRNA. Initiation factors were chemically crosslinked to ^32P cap-labeled mRNA in the absence (lane 2) or presence of ATP (lanes 1, 3-6), 0.6 mM m^7GDP (lane 3), 0.6 mM GDP (lane 4), or 50 μM hippuristanol (lane 6). Following nuclease digestion, samples were resolved by SDS-PAGE and the gel subjected to autoradiography.
Ribosome Binding and mRNA Crosslinking. Ribosome binding assays were performed by incubating ^32P-labelled CAT mRNA in rabbit reticulocyte lysate or wheat germ extracts in the presence of: 600 μM cycloheximide (CHX), 1 mM GMP-PNP, and/or 50 μM hippuristanol or vehicle for 10 min (33). […] Fractions of 500 μl were collected and radioactivity was determined by scintillation counting. […]

HeLa cells = test: 35S-methionine incorporation (protein synthesis) in HeLa cells; format: cell-based
Method: FIG. 4. Effect of hippuristanol on protein, RNA and DNA synthesis in cells. A. Relative rate of ^35S-methionine incorporation as a function of hippuristanol concentration in HeLa cells. Cells were exposed to the indicated concentration of compound for 50 min., followed by a 10 min. labeling period with ^35S-methionine in the presence of compound. The rate of protein synthesis (TCA precipitable cpm) obtained in the presence of compound was normalized to the rate obtained in the presence of DMSO (which was set at 1). The rate of protein synthesis in the control reactions (containing DMSO vehicle) averaged ˜700,000 cpm/10 min. labeling period. Results are shown for two experiments and the error of the mean is presented. The relative rate of ^35S-methionine incorporation in HeLa cells exposed to 10 μM anisomycin (positive control) for 60 min. was ˜0.02 (data not shown). B. Effect of hippuristanol on protein (gray circles), DNA (open squares), and RNA (solid squares) synthesis in HeLa cells. The rate of macromolecular synthesis (TCA precipitable cpm for a 10 min. labeling period) obtained in the presence of 1 μM hippuristanol was normalized to the rate obtained in the presence of DMSO and is plotted. The results are shown for two experiments and the error of the mean is presented. The rate of protein, RNA and DNA synthesis in the control reactions (containing DMSO vehicle) averaged ˜900,000 cpm/10 min, ˜16,000 cpm/10 min. and 7,000 cpm/10 min labeling, respectively. The relative rate of ^35S-methionine incorporation by HeLa cells exposed to 10 μM anisomycin for 60 min. (positive control for inhibition of protein synthesis) was 0.02 (data not shown). The relative rate of ^3H-uridine incorporation by HeLa cells exposed to 50 μM actinomycin (positive control for inhibition of RNA synthesis) for 60 min. was 0.01 (data not shown). C. […] Gradients were analyzed by piercing the tube with a Brandel tube piercer, passing 60% sucrose through the bottom of the tube, and monitoring the absorbance of the material eluting from the tube using an ISCO UA-6 UV Detector.

C[C@H]1C[C@@]2(O[C@H]3C[C@H]4[C@@H]5CC[C@H]6C[C@H](O)CC[C@]6(C)[C@H]5[C@@H](O)C[C@]4(C)[C@H]3[C@@]2(C)O)OC1(C)C [Hippuristanol, hippuristanol]
percent mRNA bound in 80S complexes (80S complex formation): 5.7%
eukaryotic protein synthesis (35S-methionine incorporation) (HeLa cells; FIG. 4): inhibits
reversibility of the inhibitory effect on protein synthesis (HeLa cells; HeLa cells, 1 μM for 60 min, then compound washed off): reversible

— patent US8008346B2, “Chemotherapeutic agents for inhibition of protein translation” (The Royal University for the Advancement of Learning/McGill …, priority 2006, dated 2011)
